The target in one experiment is T1, MASP-2 (CCP1-CCP2-SP) (Homo sapiens, UniProt O00187).
T1 construct: 15 μL of Enzyme MASP-2 (CCP1-CCP2-SP) in Assay Buffer
The experiment in a line: Enzymatic assay for MASP-2 inhibitory activity (fluorogenic substrate). It counts as biochemical. In a few lines:
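MASP-2 (CCP1-CCP2-SP) cleaved a fluorogenic substrate based on the C2 cleavage site in 20 mM HEPES pH 7.4, 140 mM NaCl, 0.1% Tween 20 at room temperature. After 20 min the reaction was stopped with 0.1 M acetic acid and fluorescence read. % activity was normalized to DMSO-only and no-enzyme controls; IC50 taken as Ki.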

For the next experiment, the target named is T2, human α-thrombin (Homo sapiens, UniProt P00734).
T2 construct: enzyme (human α-thrombin (BioPharm® Lab.)) in assay buffer; purchased BioPharm® Lab
The experiment is described as follows: Enzymatic assay for thrombin (fluorogenic peptide substrate Boc-VPR-AMC). Type of experiment: biochemical. In a few lines:
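Human α-thrombin was run with the fluorogenic substrate Boc-VPR-AMC in 20 mM Hepes pH 7.4, 140 mM NaCl, 0.1% Tween 20 at room temperature for 20 min, then stopped with 0.1 M acetic acid. % activity was normalized to DMSO and no-enzyme controls. Under linear conditions IC50 equalled Ki, except for tight-binding inhibitors.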

Structures can show the parent of a compound that is named as a salt.

T1 sequence (O00187 445-686 limits assumed): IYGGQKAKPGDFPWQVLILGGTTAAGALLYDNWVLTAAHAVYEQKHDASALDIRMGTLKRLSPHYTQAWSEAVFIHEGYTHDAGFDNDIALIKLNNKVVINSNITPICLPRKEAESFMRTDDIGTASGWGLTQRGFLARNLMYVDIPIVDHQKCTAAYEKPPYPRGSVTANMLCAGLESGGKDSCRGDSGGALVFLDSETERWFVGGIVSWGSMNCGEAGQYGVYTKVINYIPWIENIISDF
T1 sequence (O00187 287-444 partner limits assumed): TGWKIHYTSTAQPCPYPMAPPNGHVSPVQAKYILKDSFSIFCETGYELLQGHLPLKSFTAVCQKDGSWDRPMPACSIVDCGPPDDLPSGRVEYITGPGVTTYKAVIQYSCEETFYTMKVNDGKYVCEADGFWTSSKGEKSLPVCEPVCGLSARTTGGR

As a reminder, the Ki is the equilibrium dissociation constant of an inhibitor or competing ligand from its target. High values mean a looser hold on the target, low ones a stronger hold on the target. On to `COCCCCNc1nc(Cl)c2n(c1=O)[C@H](C(=O)NCc1cc3cnccc3[nH]1)CC2` [Compound 22, (S)-N-((1H-pyrrolo[3,2-c]pyridin-2-yl)methyl)-1-chloro-3-((4-methoxybutyl)amino)-4-oxo-4,6,7,8-tetrahydropyrrolo[1,2-a]pyrazine-6-carboxamide], for which the Ki is below 500 nM on MASP-2 (CCP1-CCP2-SP) and 10000 to 25000 nM on human α-thrombin.
Turning to `Cc1ccc(C)c(CNc2ncc3n(c2=O)[C@H](C(=O)N[C@H](C)c2ccc(N)nc2)CC3)c1` [Compound 193, (S)-N-((R)-1-(6-aminopyridin-3-yl)ethyl)-3-((2,5-dimethylbenzyl)amino)-4-oxo-4,6,7,8-tetrahydropyrrolo[1,2-a]pyrazine-6-carboxamide trifluoroacetate], the inhibitory constant (Ki) at MASP-2 (CCP1-CCP2-SP) was below 500 nM; at human α-thrombin it was 2500 to 10000 nM.
Regarding `O=C(NCc1cc2cnccc2[nH]1)[C@@H]1CCc2c(-c3cn[nH]c3)nc(NCCc3ccccc3)c(=O)n21` [Compound 246], the Ki is below 500 nM on MASP-2 (CCP1-CCP2-SP) and above 25000 nM at human α-thrombin.
For `COc1cc(C)cc(CNc2ncc3n(c2=O)[C@H](C(=O)NCc2ccc(N)nc2C)C[C@@H]3Cc2ccccc2)c1` [Compound 138, (6S,8S)-N-((6-amino-2-methylpyridin-3-yl)methyl)-8-benzyl-3-((3-methoxy-5-methylbenzyl)amino)-4-oxo-4,6,7,8-tetrahydropyrrolo[1,2-a]pyrazine-6-carboxamide], the Ki on MASP-2 (CCP1-CCP2-SP) and on human α-thrombin was below 500 nM each time.
Turning to `C[C@H](NC(=O)[C@@H]1CCc2cnc(N[C@@H](c3ccccc3)C3CC3)c(=O)n21)c1cc2c(s1)CNC2` [Compound 273, (S)-3-(((R)-cyclopropyl(phenyl)methyl)amino)-N-((S)-1-(5,6-dihydro-4H-thieno[2,3-c]pyrrol-2-yl)ethyl)-4-oxo-4,6,7,8-tetrahydropyrrolo[1,2-a]pyrazine-6-carboxamide trifluoroacetate], the Ki on MASP-2 (CCP1-CCP2-SP) is 2500 to 10000 nM; on human α-thrombin, above 25000 nM.
As for `Cc1cccc(CNc2ncc3n(c2=O)[C@H](C(=O)N[C@H](C)c2ccc(N)nc2)CC3)c1` [Compound 187, (S)-N-((R)-1-(6-aminopyridin-3-yl)ethyl)-3-((3-methylbenzyl)amino)-4-oxo-4,6,7,8-tetrahydropyrrolo[1,2-a]pyrazine-6-carboxamide], the Ki on MASP-2 (CCP1-CCP2-SP) was below 500 nM; at human α-thrombin it was 2500 to 10000 nM.
For `Cc1cc(C)cc(CNc2ncc3n(c2=O)[C@H](C(=O)NCc2ccc(N)nc2)CC3)c1` [Compound 87, (S)-N-((6-aminopyridin-3-yl)methyl)-3-((3,5-dimethylbenzyl)amino)-4-oxo-4,6,7,8-tetrahydropyrrolo[1,2-a]pyrazine-6-carboxamide] the same measures were below 500 nM and below 500 nM.
For the compound `Cc1cc(F)cc(CNc2ncc3n(c2=O)[C@H](C(=O)NC(C#N)c2cccc(Cl)c2)CC3)c1` (stereo partly drawn) [Compound 185, (6S)-N-((3-chlorophenyl)(cyano)methyl)-3-((3-fluoro-5-methylbenzyl)amino)-4-oxo-4,6,7,8-tetrahydropyrrolo[1,2-a]pyrazine-6-carboxamide], the Ki on MASP-2 (CCP1-CCP2-SP) and on human α-thrombin was 2500 to 10000 nM in each case.
Regarding `Cc1cc(C)cc(CNc2ncc3n(c2=O)[C@H](C(=O)N[C@H](C)c2ccc(N)nc2C)CC3)c1` [Compound 238], the Ki on MASP-2 (CCP1-CCP2-SP) was below 500 nM; at human α-thrombin it was 500 to 2500 nM.
Regarding `Cc1nc(N)ccc1CNC(=O)[C@@H]1CCc2cnc(NCc3cccc(C(C)C)c3)c(=O)n21` [Compound 208], the inhibition constant (Ki) on MASP-2 (CCP1-CCP2-SP) and on human α-thrombin was below 500 nM each time.
`Cc1nc(N)ccc1CNC(=O)C1CCc2c(Cl)nc(NCc3cncnc3)c(=O)n21` (stereo not shown) [Compound 150]: the values for the Ki at MASP-2 (CCP1-CCP2-SP) and at human α-thrombin were below 500 nM and 2500 to 10000 nM, respectively.
On to `CCc1cccc(CNc2nc(Cl)c3n(c2=O)[C@H](C(=O)NCc2cc4cnccc4[nH]2)CC3)c1` [Compound 3, (S)-N-((1H-pyrrolo[3,2-c]pyridin-2-yl)methyl)-1-chloro-3-((3-ethylbenzyl)amino)-4-oxo-4,6,7,8-tetrahydropyrrolo[1,2-a]pyrazine-6-carboxamide], for which the Ki on MASP-2 (CCP1-CCP2-SP) is below 500 nM; at human α-thrombin, 2500 to 10000 nM.
For `Cc1cc(F)cc(CNc2ncc3n(c2=O)[C@H](C(=O)NCc2ccc(CN)cc2C)CC3)c1` [Compound 205, (S)—N-(4-(aminomethyl)-2-methylbenzyl)-3-((3-fluoro-5-methylbenzyl)amino)-4-oxo-4,6,7,8-tetrahydropyrrolo[1,2-a]pyrazine-6-carboxamide trifluoroacetate] the same measures were below 500 nM and 2500 to 10000 nM.
For `Cc1nc(N)ccc1CNC(=O)[C@@H]1CCc2c(Cl)nc(NCC3COC3)c(=O)n21` [Compound 146, (S)-N-((6-amino-2-methylpyridin-3-yl)methyl)-1-chloro-3-((oxetan-3-ylmethyl)amino)-4-oxo-4,6,7,8-tetrahydropyrrolo[1,2-a]pyrazine-6-carboxamide], in that order: 500 to 2500 nM and 10000 to 25000 nM.
In the case of `O=C(NCc1cc2cnccc2[nH]1)[C@@H]1CCc2c(Cl)nc(NCCc3cccnc3)c(=O)n21` [Compound 241], the Ki on MASP-2 (CCP1-CCP2-SP) and on human α-thrombin was below 500 nM in each case.
As to `O=C(NCc1cc2cnccc2[nH]1)[C@@H]1CCc2cnc(NCC3CCc4ccccc4C3)c(=O)n21` (stereo partly shown) [Compound 148], the Ki on MASP-2 (CCP1-CCP2-SP) is below 500 nM; on human α-thrombin, 500 to 2500 nM.
For `Cc1cc2[nH]c(CNC(=O)[C@@H]3CCc4cnc(NCc5ccccc5)c(=O)n43)cc2cn1` [Compound 103, (S)-3-(benzylamino)-N-((6-methyl-1H-pyrrolo[3,2-c]pyridin-2-yl)methyl)-4-oxo-4,6,7,8-tetrahydropyrrolo[1,2-a]pyrazine-6-carboxamide] the same measures were below 500 nM and above 25000 nM.
In the case of `Cc1nc(N)ccc1CNC(=O)[C@@H]1CCc2cnc(NCc3nn(C)c4ccccc34)c(=O)n21` [Compound 170, (S)-N-((6-amino-2-methylpyridin-3-yl)methyl)-3-(((1-methyl-1H-indazol-3-yl)methyl)amino)-4-oxo-4,6,7,8-tetrahydropyrrolo[1,2-a]pyrazine-6-carboxamide trifluoroacetate], the Ki on MASP-2 (CCP1-CCP2-SP) and at human α-thrombin was below 500 nM throughout.
Regarding `O=C(NCc1cc2cnccc2[nH]1)[C@@H]1CC2(CC=CC2)c2c(Cl)nc(NCc3ccccc3)c(=O)n21` [Compound 233, (S)—N-((1H-pyrrolo[3,2-c]pyridin-2-yl)methyl)-3′-(benzylamino)-1′-chloro-4′-oxo-6′,7′-dihydro-4′H-spiro[cyclopentane-1,8′-pyrrolo[1,2-a]pyrazin]-3-ene-6′-carboxamide trifluoroacetate], the Ki on MASP-2 (CCP1-CCP2-SP) is below 500 nM; on human α-thrombin it was above 25000 nM.
On to `CC[C@@H](Nc1ncc2n(c1=O)[C@H](C(=O)NCc1cc3c(s1)CNC3)CC2)c1cccc(-c2ccccc2)c1` [Compound 267, (S)-3-(((R)-1-([1,1'-biphenyl]-3-yl)propyl)amino)-N-((5,6-dihydro-4H-thieno[2,3-c]pyrrol-2-yl)methyl)-4-oxo-4,6,7,8-tetrahydropyrrolo[1,2-a]pyrazine-6-carboxamide trifluoroacetate], for which the Ki on MASP-2 (CCP1-CCP2-SP) is below 500 nM; on human α-thrombin it was 500 to 2500 nM.

For the origin of these results see patent US20250122225A1, “MASP-2 INHIBITORS AND METHODS OF USE” (Omeros Corporation, priority 2023, published 2025).
